In US8399681B2, “Substituted aminothiazolone indazoles as estrogen related receptor-alpha modulators” (Janssen Pharmaceutica NV, priority 2009, dated 2013) one finds EC50 data, which are given here for 20 compounds.

The target of the test is T1, ERR1 (also known as ERR-α or ERR-1) (Homo sapiens, UniProt P11474).
T1 sequence (P11474 193-421 limits assumed): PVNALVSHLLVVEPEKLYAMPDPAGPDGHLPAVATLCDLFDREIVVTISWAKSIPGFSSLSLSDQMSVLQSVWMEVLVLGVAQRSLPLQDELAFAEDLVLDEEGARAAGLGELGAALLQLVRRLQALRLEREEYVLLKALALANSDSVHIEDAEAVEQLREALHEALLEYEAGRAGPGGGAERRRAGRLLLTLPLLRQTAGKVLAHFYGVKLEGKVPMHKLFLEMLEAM
In words: TR-FRET assay (disruption of co-activator peptide binding). Type of test: biochemical. Particulars: 6His-tagged ERR1 LBD, GST-hSRC2 co-activator polypeptide; average of 3 independent experiments. The procedure, abridged: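 His6-ERR1 LBD (6 nM) with GST-SRC-2 peptide (6 nM), anti-GST Eu cryptate (30 nM) and anti-His XL665 (7.5 nM) in Tris pH 8/KCl/DTT/BSA buffer, equilibrated 4-18 h at 25 °C. Ex 340, em 615/665 nm; hyperbolic dose-response fit, mean of 3 experiments.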

One may read the EC50 as the concentration at which the effect is half-maximal. A high value points to a less potent agent.

As for `COC(=O)CCNC(=O)C1CN(C2=NC(=O)/C(=C/c3ccc4c(cnn4Cc4ccc(C(F)(F)F)cc4C(F)(F)F)c3)S2)C1` [Example 153, 3-[(1-{5-[1-(2,4-Bis-trifluoromethyl-benzyl)-1H-indazol-5-ylmethylene]-4-oxo-4,5-dihydro-thiazol-2-yl}-azetidine-3-carbonyl)-amino]-propionic acid methyl ester], a half-maximal effect (EC50) was put at 44 nM.

Consider `NC1(C(=O)O)CCN(C2=NC(=O)/C(=C/c3ccc4c(cnn4Cc4ccc(Cl)cc4C(F)(F)F)c3)S2)CC1` [Example 154, 4-Amino-1-{5-[1-(4-chloro-2-trifluoromethyl-benzyl)-1H-indazol-5-ylmethylene]-4-oxo-4,5-dihydro-thiazol-2-yl}-piperidine-4-carboxylic acid], for which the EC50 was 26.2 nM.

`CC(=O)N(C)C1CCN(C2=NC(=O)/C(=C/c3ccc4c(cnn4Cc4ccc(Cl)cc4C(F)(F)F)c3)S2)CC1` [Example 155, N-(1-{5-[1-(4-Chloro-2-trifluoromethyl-benzyl)-1H-indazol-5-ylmethylene]-4-oxo-4,5-dihydro-thiazol-2-yl}-piperidin-4-yl)-N-methyl-acetamide]: the EC50 is 34 nM. This EC50 and that of the compound before are within 1.5-fold of each other.

As for `CCOC(=O)C1(N)CCN(C2=NC(=O)/C(=C/c3ccc4c(cnn4Cc4ccc(Cl)cc4C(F)(F)F)c3)S2)CC1` [Example 156, 4-Amino-1-{5-[1-(4-chloro-2-trifluoromethyl-benzyl)-1H-indazol-5-ylmethylene]-4-oxo-4,5-dihydro-thiazol-2-yl}-piperidine-4-carboxylic acid ethyl ester], the EC50 was found to be 58 nM.

In turn, `O=C1N=C(N2CCC(n3cccn3)CC2)S/C1=C\c1ccc2c(cnn2Cc2ccc(Cl)cc2C(F)(F)F)c1` [Example 157, 5-[1-(4-Chloro-2-trifluoromethyl-benzyl)-1H-indazol-5-ylmethylene]-2-(4-pyrazol-1-yl-piperidin-1-yl)-thiazol-4-one] displayed an EC50 of 35 nM.

For the compound `O=C1N=C(N2CCC(n3cncn3)CC2)S/C1=C\c1ccc2c(cnn2Cc2ccc(Cl)cc2C(F)(F)F)c1` [Example 158, 5-[1-(4-Chloro-2-trifluoromethyl-benzyl)-1H-indazol-5-ylmethylene]-2-(4-[1,2,4]triazol-1-yl-piperidin-1-yl)-thiazol-4-one], the EC50 worked out at 32 nM. The EC50 values of the last two compounds are within 1.5-fold of each other.

`O=C1N=C(N2CCC(n3ccnc3)CC2)S/C1=C\c1ccc2c(cnn2Cc2ccc(Cl)cc2C(F)(F)F)c1` [Example 159, 5-[1-(4-Chloro-2-trifluoromethyl-benzyl)-1H-indazol-5-ylmethylene]-2-(4-imidazol-1-yl-piperidin-1-yl)-thiazol-4-one] had an EC50 of 36 nM.

For `CCNC(=O)NC1CCN(C2=NC(=O)/C(=C/c3ccc4c(cnn4Cc4ccc(C(F)(F)F)cc4C(F)(F)F)c3)S2)CC1` [Example 160, 1-(1-{5-[1-(2,4-Bis-trifluoromethyl-benzyl)-1H-indazol-5-ylmethylene]-4-oxo-4,5-dihydro-thiazol-2-yl}-piperidin-4-yl)-3-ethyl-urea], the EC50 came out at 22 nM.

In the case of `CNC1CCCCN(C2=NC(=O)/C(=C/c3ccc4c(cnn4Cc4ccc(Cl)cc4C(F)(F)F)c3)S2)C1` (centres unmarked) [Example 161, 5-[1-(4-Chloro-2-trifluoromethyl-benzyl)-1H-indazol-5-ylmethylene]-2-(3-methylamino-azepan-1-yl)-thiazol-4-one], the EC50 amounted to 24.8 nM.

In turn, `O=C1N=C(N2CCCC2)S/C1=C\c1ccc2c(cnn2Cc2ccc(Cl)cc2C(F)(F)F)c1` [Example 162, 5-[1-(4-Chloro-2-trifluoromethyl-benzyl)-1H-indazol-5-ylmethylene]-2-pyrrolidin-1-yl-thiazol-4-one] had an EC50 of 27 nM.

In turn, `CN(C)CC1(O)CCN(C2=NC(=O)/C(=C/c3ccc4c(cnn4Cc4ccc(Cl)cc4C(F)(F)F)c3)S2)CC1` [Example 163, 5-[1-(4-Chloro-2-trifluoromethyl-benzyl)-1H-indazol-5-ylmethylene]-2-(4-dimethylaminomethyl-4-hydroxy-piperidin-1-yl)-thiazol-4-one] gave an EC50 of 26 nM.

On to `O=C1N=C(N2CCC(O)(Cn3ccnc3)CC2)S/C1=C\c1ccc2c(cnn2Cc2ccc(Cl)cc2C(F)(F)F)c1` [Example 164, 5-[1-(4-Chloro-2-trifluoromethyl-benzyl)-1H-indazol-5-ylmethylene]-2-(4-hydroxy-4-imidazol-1-ylmethyl-piperidin-1-yl)-thiazol-4-one], for which the EC50 was determined as 12 nM.

As to `CCC1(O)CCCN(C2=NC(=O)/C(=C/c3ccc4c(cnn4Cc4ccc(Cl)cc4C(F)(F)F)c3)S2)C1` (centres unmarked) [Example 165, 5-[1-(4-Chloro-2-trifluoromethyl-benzyl)-1H-indazol-5-ylmethylene]-2-(3-ethyl-3-hydroxy-piperidin-1-yl)-thiazol-4-one], the EC50 came to 18 nM.

Consider `O=C1N=C(N2CCC(N3CCCC(O)C3)CC2)S/C1=C\c1ccc2c(cnn2Cc2ccc(Cl)cc2C(F)(F)F)c1` (centres unmarked) [Example 166, 5-[1-(4-Chloro-2-trifluoromethyl-benzyl)-1H-indazol-5-ylmethylene]-2-(3-hydroxy-[1,4′]bipiperidinyl-1′-yl)-thiazol-4-one], for which the response was half-maximal at 19 nM (EC50).

`O=C1N=C(N2CCC3(CC2)NCNC3=O)S/C1=C\c1ccc2c(cnn2Cc2ccc(Cl)cc2C(F)(F)F)c1` [Example 167, 8-{5-[1-(4-Chloro-2-trifluoromethyl-benzyl)-1H-indazol-5-ylmethylene]-4-oxo-4,5-dihydro-thiazol-2-yl}-1,3,8-triaza-spiro[4.5]decan-4-one] came in with an EC50 of 16 nM.

With `CN1CCN(C2=NC(=O)/C(=C/c3ccc4c(cnn4Cc4ccc(C(F)(F)F)cc4C(F)(F)F)c3)S2)CC1CCO` (centres unmarked) [Example 168, 5-[1-(2,4-Bis-trifluoromethyl-benzyl)-1H-indazol-5-ylmethylene]-2-[3-(2-hydroxy-ethyl)-4-methyl-piperazin-1-yl]-thiazol-4-one], the EC50 was found to be 9 nM.

Consider `O=C1N=C(N2CCn3cccc3C2)S/C1=C\c1ccc2c(cnn2Cc2ccc(C(F)(F)F)cc2C(F)(F)F)c1` [Example 169, 5-[1-(2,4-Bis-trifluoromethyl-benzyl)-1H-indazol-5-ylmethylene]-2-(3,4-dihydro-1H-pyrrolo[1,2-a]pyrazin-2-yl)-thiazol-4-one], for which the EC50 was 225 nM. Compared with the last compound, the EC50 is about 25-fold higher.

In turn, `CC1C(=O)N(C)CCN1C1=NC(=O)/C(=C/c2ccc3c(cnn3Cc3ccc(C(F)(F)F)cc3C(F)(F)F)c2)S1` (centres unmarked) [Example 170, 4-{5-[1-(2,4-Bis-trifluoromethyl-benzyl)-1H-indazol-5-ylmethylene]-4-oxo-4,5-dihydro-thiazol-2-yl}-1,3-dimethyl-piperazin-2-one] displayed an EC50 of 30 nM.

`CN(C)CC1CN(C2=NC(=O)/C(=C/c3ccc4c(cnn4Cc4ccc(C(F)(F)F)cc4C(F)(F)F)c3)S2)CCO1` (centres unmarked) [Example 171, 5-[1-(2,4-Bis-trifluoromethyl-benzyl)-1H-indazol-5-ylmethylene]-2-(2-dimethylaminomethyl-morpholin-4-yl)-thiazol-4-one] came in with an EC50 of 38 nM.

`O=C1N=C(N2CCO[C@@H](CO)C2)S/C1=C\c1ccc2c(cnn2Cc2ccc(C(F)(F)F)cc2C(F)(F)F)c1` [Example 172, 5-[1-(2,4-Bis-trifluoromethyl-benzyl)-1H-indazol-5-ylmethylene]-2(R)-(2-hydroxymethyl-morpholin-4-yl)-thiazol-4-one] came in with an EC50 of 14 nM.
